Measured values: patent US20070020183A1, “Perfluoroalkyl-containing complexes, process for their production as well as their use” (priority 2005, published 2007)

How the values were obtained:
[1] = system: inflammatory muscle lesions and necrotic areas; assay: MRT visualization of inflammatory lesions and necrotic areas in rats; type: in vivo; conditions: i.v. 50 μmol of Gd/kg, T1-weighted turbo-spin-echo 1.5 T
Experimental: By way of example, the pictures of FIG. 3 show MR images of inflammatory muscle lesions as well as necrotic areas at different points in time after intravenous administration of 50 μmol of Gd/kg of body weight of gadolinium complex XIV (title substance of Example 4g) in rats. The inflammation/necrosis was induced by intravenous administration of Rose Bengal (20 mg/kg; 24 hours before the administration of contrast medium) and subsequent 20-minute irradiation with a xenon lamp.

[2] = in vivo; cited from earlier work

Compound	MR signal in the central necrosis ([1]; 24 hours p.i.)	MR signal in inflammatorily altered tissue ([1]; up to 60 minutes p.i.)	LD50 [2]
CC(C(=O)NCC(=O)NCCCC[C@H](NC(=O)CO[C@H]1O[C@H](CO)[C@@H](O)[C@H](O)[C@@H]1O)C(=O)NCCCC(F)(F)C(F)(F)C(F)(F)C(F)(F)C(F)(F)C(F)(F)C(F)(C(F)(F)F)C(F)(F)F)N1CCN(CC(=O)[O-])CCN(CC(=O)[O-])CCN(CC(=O)[O-])CC1.[Gd+3] (stereo partly drawn) [Gadolinium complex XIV, Gadolinium complex of 6-N-[1,4,7-tris-(carboxylatomethyl)-1,4,7,10-tetraazacyclododecane-10-N-(pentanoyl-3-aza-4-oxo-5-methyl-5-yl)]-2-N-(1-O-α-d-carbonylmethylmannopyranose)-L-lysine-[(1H,1H,2H,2H-perfluoro-9-methyldecyl)-methyl]-amide]	delayed signal rise	strong signal rise	–
Mn-TPPS	–	–	approximately 0.5 mmol/kg
